Legend:
Trypanosoma cruzi = test: Antiprotozoal activity against Trypanosoma cruzi Tulahuen C4 amastigotes infected in rat L6 cells assessed as growth inhibition after 96 by photometric analysis; assay type: functional, organism-based
HT-29 = test: Cytotoxicity against human HT-29 cells assessed as reduction of cell viability measured after 16 hrs by crystal violet staining assay; assay type: functional, cell-based
Plasmodium falciparum [1] = test: Antiprotozoal activity against chloroquine-sensitive Plasmodium falciparum NF54 assessed as growth inhibition incubated for 48 hrs by [3H]-hypoxanthine incorporation assay; assay type: functional, organism-based
[2] = system: Trypanosoma brucei rhodesiense; test: Antiprotozoal activity against Trypanosoma brucei rhodesiense STIB900 trypomastigotes assessed as growth inhibition after 72 hrs by Alamar Blue dye-based fluorometric analysis; assay type: functional, organism-based
L6 = test: Cytotoxicity against rat L6 cells assessed as reduction in cell viability after 72 hrs by Alamar blue dye-based fluorometric analysis
[3] = Selectivity index, ratio of IC50 for cytotoxicity against rat L6 cells to IC50 for antiprotozoal activity against Plasmodium falciparum NF54; assay type: toxicity, cell-based
Plasmodium falciparum [4] = test: Antiprotozoal activity against asexual erythrocytic form of chloroquine-sensitive Plasmodium falciparum NF54 clone A1A9 assessed as growth inhibition incubated for 42 hrs by [3H]-hypoxanthine incorporation assay; assay type: functional, organism-based
Leishmania donovani = test: Antiprotozoal activity against Leishmania donovani MHOM/ET/67/L82 axenic amastigotes assessed as growth inhibition after 72 hrs by Alamar Blue dye-based fluorometric analysis; assay type: functional, organism-based
HT-1080 = test: Cytotoxicity against human HT1080 cells assessed as reduction of cell viability measured after 16 hrs by crystal violet staining assay; assay type: functional, cell-based; conditions: HT-1080, 16 h
MM1.S = test: Cytotoxicity against human MM1S cells assessed as reduction of cell viability incubated for overnight by MTT assay; assay type: functional, cell-based
[5] = Trypanosoma cruzi, Tulahuen C4, L6
[6] = Leishmania donovani, MHOM/ET/67/L82, 72 h

| SMILES | IC50 (Plasmodium falciparum [1]) [nM] | IC50 (Trypanosoma cruzi) [µM] | IC50 [2] [nM] | IC50 (L6) [µM] | Ratio IC50 [3] | other results |
| --- | --- | --- | --- | --- | --- | --- |
| O=C(Cn1ccnc1[N+](=O)[O-])NCc1ccccc1 [BENZNIDAZOLE] |  |  |  |  |  | IC50 (Trypanosoma cruzi; [5]): 2.6 µM |
| COc1cc(O)c(-c2c(C)cc(OC)c3c(OC)cccc23)c2c1[C@H](C)N[C@H](C)C2 |  |  |  |  |  | IC50 (HT-29): Not Active |
| COc1cccc2c(-c3ccc4c(c3O)[C@@H](C)N[C@H](C)C4)c(C)c(-c3c(C)c(-c4ccc5c(c4O)[C@@H](C)N[C@H](C)C5)c4cccc(OC)c4c3O)c(O)c12 (stereo in doubt; 1b) | 21 | 17.1 | 320 | 4.3 | 206 |  |
| COc1cccc2c(-c3ccc4c(c3O)[C@@H](C)N(C)[C@@H](C)C4)c(C)cc(OC)c12 |  |  |  |  |  | IC50 (HT-29): Not Active |
| COc1cccc2c(-c3ccc4c(c3O)[C@@H](C)N[C@H](C)C4)c(C)cc(OC)c12 [DIONCOPHYLLINE A] |  |  |  |  |  | IC50 (Plasmodium falciparum [4]): 3.8 µM |
| COc1cccc2c(-c3ccc4c(c3O)[C@@H](C)N[C@H](C)C4)c(C)c(-c3c(C)c(-c4ccc5c(c4O)[C@@H](C)N[C@H](C)C5)c4cccc(OC)c4c3O)c(O)c12 (stereo in doubt; 1d) [listing 1 of 2 here] |  | 13.7 | 820 | 15.9 | 11400 | IC50 (Leishmania donovani): 80.2 µM; IC50 (HT-29; read-out: IC50): 12 µM; IC50 (HT-1080): 9 µM; IC50 (MM1.S): 5 µM |
| COc1cccc2c(-c3ccc4c(c3O)[C@@H](C)N[C@H](C)C4)c(C)cc(O)c12 (stereo in doubt; 4b) | 850 | 45.1 | 4800 | 44.8 | 52.7 |  |
| COc1cccc2c(-c3ccc4c(c3O)[C@@H](C)N[C@H](C)C4)c(C)c(-c3c(C)c(-c4ccc5c(c4O)[C@@H](C)N[C@H](C)C5)c4cccc(OC)c4c3O)c(O)c12 (stereo in doubt; 1d) [listing 2 of 2 here] |  |  |  |  |  | inhibition (HT-29): Dose-dependent effect |
| COc1cccc2c(-c3ccc4c(c3O)[C@@H](C)N[C@H](C)C4)c(C)c(-c3c(C)c(-c4ccc5c(c4O)[C@@H](C)N[C@H](C)C5)c4cccc(OC)c4c3O)c(O)c12 (stereo in doubt; 1c) | 55 | 8.1 | 160 | 2.3 | 41.6 | IC50 (Leishmania donovani): 65.2 µM |
| COc1cccc2c(-c3ccc4c(c3O)[C@@H](C)N[C@H](C)C4)c(C)cc(O)c12 (stereo in doubt; 4a) |  |  |  | 9.1 | 13.7 | IC50 (Plasmodium falciparum [1]; Plasmodium falciparum, NF54): 670 nM; IC50 (Trypanosoma cruzi; [5]): 24.4 µM; IC50 ([2]; Trypanosoma brucei, STIB900, 72 h): 6100 nM; IC50 (Leishmania donovani; [6]): > 100 µM |
| COc1cccc2c(-c3ccc4c(c3O)[C@@H](C)N[C@H](C)C4)c(C)c(-c3c(C)c(-c4ccc5c(c4O)[C@@H](C)N[C@H](C)C5)c4cccc(OC)c4c3O)c(O)c12 (stereo in doubt; 1a) | 12 | 14.9 | 490 | 7.9 | 660 | IC50 (Leishmania donovani; [6]): > 100 µM; IC50 (HT-29; read-out: IC50): > 50 µM |
| CCCCCCCCCCCCCCCCOP(=O)([O-])OCC[N+](C)(C)C [MILTEFOSINE] |  |  |  |  |  | IC50 (Leishmania donovani; [6]): 0.8 µM |
| COc1cc(O)c2c(c1-c1c(C)cc(O)c3c(OC)cccc13)C[C@H](C)N[C@H]2C |  |  |  |  |  | IC50 (HT-29): Not Active |
